Assay [1] addresses T1, Mp-KYNase (Mucilaginibacter paludis, UniProt H1YAV1).
T1 sequence (H1YAV1 1-429): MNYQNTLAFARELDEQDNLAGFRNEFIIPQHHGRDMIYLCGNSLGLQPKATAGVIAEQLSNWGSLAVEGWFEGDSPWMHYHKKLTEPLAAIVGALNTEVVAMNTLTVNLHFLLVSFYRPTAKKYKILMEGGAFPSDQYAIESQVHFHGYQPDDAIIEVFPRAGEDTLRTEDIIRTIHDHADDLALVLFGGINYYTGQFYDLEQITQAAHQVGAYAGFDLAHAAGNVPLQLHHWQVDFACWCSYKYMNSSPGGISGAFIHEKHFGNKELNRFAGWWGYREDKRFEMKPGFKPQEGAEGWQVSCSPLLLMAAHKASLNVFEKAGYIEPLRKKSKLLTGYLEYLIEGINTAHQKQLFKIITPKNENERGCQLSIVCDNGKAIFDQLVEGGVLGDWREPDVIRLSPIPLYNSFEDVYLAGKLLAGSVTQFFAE
In words: absorbance at […] nm, initial rates, Michaelis-Menten fit. It is filed as biochemical. The settings on record: DPBS pH 7.4; enzyme PLP-loaded; not PEGylated.

Assay [2] concerns the target T2, Pf-KYNase (Pseudomonas fluorescens, UniProt P83788).
T2 sequence (P83788 1-416): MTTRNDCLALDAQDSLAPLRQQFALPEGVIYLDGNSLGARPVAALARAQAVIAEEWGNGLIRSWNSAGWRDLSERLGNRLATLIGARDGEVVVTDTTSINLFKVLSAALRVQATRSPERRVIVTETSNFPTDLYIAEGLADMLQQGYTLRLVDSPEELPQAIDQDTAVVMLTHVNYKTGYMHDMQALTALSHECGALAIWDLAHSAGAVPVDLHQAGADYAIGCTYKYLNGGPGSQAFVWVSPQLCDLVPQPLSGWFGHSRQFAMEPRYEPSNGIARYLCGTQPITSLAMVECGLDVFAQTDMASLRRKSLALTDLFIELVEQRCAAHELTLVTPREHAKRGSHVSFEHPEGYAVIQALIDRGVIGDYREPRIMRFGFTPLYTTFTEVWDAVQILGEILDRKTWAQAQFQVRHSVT
Described as above. It is filed as biochemical. To be noted: DPBS pH 7.4; enzyme PLP-loaded; not PEGylated.

As for `Nc1ccccc1C(=O)C[C@H](N)C(=O)O` [kynurenine], the KM result in assay [1] was “kinetic parameters for the kynureninase enzymes against both kynurenine (Kyn, Sigma)”; in assay [2], “kinetic parameters for the kynureninase enzymes against both kynurenine (Kyn, Sigma)”.
